Data as given in PubChem BioAssay (NCI).
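How tested: cells in 96-well plates exposed to compound for 48 hours at five concentrations. TGI is the concentration that stops growth completely.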

How the values were obtained:
Assay in all cases: DTP human tumour cell line panel, 48 h
CAKI-1 renal = system: CAKI-1 renal
HCC-2998 colon = system: HCC-2998 colon
EKVX NSCLC = system: EKVX NSCLC
PC-3 prostate = system: PC-3 prostate
MDA-MB-435 = system: MDA-MB-435
A549 NSCLC = system: A549 NSCLC
SW-620 colon = system: SW-620 colon
NCI-H522 lung = system: NCI-H522 lung
A498 renal = system: A498 renal
UACC-62 melanoma = system: UACC-62 melanoma
HOP-92 NSCLC = system: HOP-92 NSCLC
OVCAR-8 ovarian = system: OVCAR-8 ovarian
MOLT-4 leukemia = system: MOLT-4 leukemia
SN12C renal = system: SN12C renal
MDA-MB-231 breast = system: MDA-MB-231 breast
NCI-H23 lung = system: NCI-H23 lung
SK-MEL-28 melanoma = system: SK-MEL-28 melanoma
M14 melanoma = system: M14 melanoma
HCT-116 colon = system: HCT-116 colon
LOX IMVI melanoma = system: LOX IMVI melanoma
NCI-H460 lung = system: NCI-H460 lung
NCI/ADR-RES ovarian = system: NCI/ADR-RES ovarian
SNB-75 CNS = system: SNB-75 CNS
MALME-3M melanoma = system: MALME-3M melanoma
ACHN renal = system: ACHN renal
MDA-N = system: MDA-N
COLO 205 colon = system: COLO 205 colon
786-0 renal = system: 786-0 renal
HOP-62 NSCLC = system: HOP-62 NSCLC
K-562 leukemia = system: K-562 leukemia
SR leukemia = system: SR leukemia
U251 CNS = system: U251 CNS
MCF7 breast = system: MCF7 breast
T-47D breast = system: T-47D breast
RXF 393 renal = system: RXF 393 renal
UO-31 renal = system: UO-31 renal
IGROV1 ovarian = system: IGROV1 ovarian
HCT-15 colon = system: HCT-15 colon
SF-539 CNS = system: SF-539 CNS
DU-145 prostate = system: DU-145 prostate
HL-60(TB) leukemia = system: HL-60(TB) leukemia
RPMI-8226 leukemia = system: RPMI-8226 leukemia
TK-10 renal = system: TK-10 renal
SF-268 CNS = system: SF-268 CNS
OVCAR-5 ovarian = system: OVCAR-5 ovarian
BT-549 breast = system: BT-549 breast
NCI-H226 lung = system: NCI-H226 lung
OVCAR-4 ovarian = system: OVCAR-4 ovarian
UACC-257 melanoma = system: UACC-257 melanoma
KM12 colon = system: KM12 colon
SK-MEL-2 melanoma = system: SK-MEL-2 melanoma
HT29 colon = system: HT29 colon
CCRF-CEM leukemia = system: CCRF-CEM leukemia
SNB-19 CNS = system: SNB-19 CNS
SK-MEL-5 melanoma = system: SK-MEL-5 melanoma
OVCAR-3 ovarian = system: OVCAR-3 ovarian
HS 578T breast = system: HS 578T breast
SF-295 CNS = system: SF-295 CNS

Measured: TGI

CC(CC(C)[C@H]1CCC2[C@H]3C(CC[C@@]21C)[C@@]1(C)CCC(O)C[C@H]1C[C@@H]3O)C(=O)O (stereo partly specified)
not listed: SK-MEL-5 melanoma | OVCAR-3 ovarian | HS 578T breast | SF-295 CNS
> 100 µM: all other assays above

CN(C)CCNc1ccccn1
not listed: SNB-75 CNS | COLO 205 colon | MCF7 breast | SF-539 CNS | RPMI-8226 leukemia | CCRF-CEM leukemia
> 100 µM: all other assays above
